In patent publication US10730889B2, “Amido spirocyclic amide and sulfonamide derivatives” (Forma TM, LLC, priority 2012, dated 2020):
Where two headings read alike, the source gives them in different places.

Test system: A2780 cells
Test: In-vitro cell proliferation assay (SRB, 72 hours)
Format: cell-based
Details: A2780 cells, 72 hours, SRB, read-out: Cell Proliferation (IC50)

Structure (SMILES)	IC50 (Homo sapiens, A2780, 72 h) [nM]	IC50 [nM]
O=C(NCC1CC12CCN(C(=O)c1ncc[nH]1)CC2)c1cc2ccncc2o1 (stereo not drawn) [Example 338, N-[[6-(1H-imidazole-2-carbonyl)-6-azaspiro[2.5]octan-2-yl]methyl]furo[2,3-c]pyridine-2-carboxamide]	2000	–
O=C(NCC1CC12CCN(C(=O)c1cnc3[nH]cnc3c1)CC2)c1cc2ccncc2o1 (stereo not drawn) [Example 340, N-[[6-(3H-imidazo[4,5-b]pyridine-6-carbonyl)-6-azaspiro[2.5]octan-2-yl]methyl]furo[2,3-c]pyridine-2-carboxamide]	429	–
Cc1ccc(C(=O)N2CCC3(CC2)CC3CNC(=O)c2cc3ccncc3o2)nc1 (stereo not drawn) [Example 341, N-[[6-(5-methylpyridine-2-carbonyl)-6-azaspiro[2.5]octan-2-yl)methyl]furo[2,3-c]pyridine-2-carboxamide]	717	–
CN1CCN(Cc2ccc(C(=O)N3CCC4(CC3)CC4CNC(=O)c3cc4cnccc4[nH]3)cc2)CC1 (stereo not drawn) [Example 343, N-[[6-[4-[(4-methylpiperazin-1-yl)methyl]benzoyl]-6-azaspiro[2.5]octan-2-yl]methyl]-1H-pyrrolo[3,2-c]pyridine-2-carboxamide]	42.5	–
CN1CCN(Cc2cccc(C(=O)N3CCC4(CC3)CC4CNC(=O)c3cc4cnccc4[nH]3)c2)CC1 (stereo not drawn) [Example 344, N-[[6-[3-[(4-methylpiperazin-1-yl)methyl]benzoyl]-6-azaspiro[2.5]octan-2-yl]methyl]-1H-pyrrolo[3,2-c]pyridine-2-carboxamide]	72	–
CN(C)Cc1ccc(C(=O)N2CCC3(CC2)CC3CNC(=O)c2cc3cnccc3[nH]2)cc1 (stereo not drawn) [Example 345, N-[[6-[4-[(dimethylamino)methyl]benzoyl]-6-azaspiro[2.5]octan-2-yl]methyl]-1H-pyrrolo[3,2-c]pyridine-2-carboxamide]	80.8	–
CC1(C)CC1C(=O)N1CCC2(CC1)CC2CNC(=O)c1cc2cnccc2[nH]1 (stereo not drawn) [Example 348, N-[[6-(2,2-dimethylcyclopropanecarbonyl)-6-azaspiro[2.5]octan-2-yl]methyl]-1H-pyrrolo[3,2-c]pyridine-2-carboxamide]	–	42.6
N#Cc1ccccc1CC(=O)N1CCC2(CC1)CC2CNC(=O)N1Cc2ccncc2C1 (stereo not drawn) [Example 357, N-[[6-[2-(2-cyanophenyl)acetyl]-6-azaspiro[2.5]octan-2-yl]methyl]-1,3-dihydropyrrolo[3,4-c]pyridine-2-carboxamide]	10.6	–
CC(=O)NCC(C)(C)OC(=O)N1CCC2(CC1)CC2CNC(=O)N1Cc2ccncc2C1 (stereo not drawn) [Example 358, (2-acetamido-1,1-dimethyl-ethyl)2-[(1,3-dihydropyrrolo[3,4-c]pyridine-2-carbonylamino)methyl]-6-azaspiro[2.5]octane-6-carboxylate]	9.19	–
C=C/N=C\C1=CCN(C(=O)NCC2CC23CCN(C(=O)CCC(C)(C)O)CC3)C1 (stereo not drawn) [Example 360, N-[[6-(4-hydroxy-4-methyl-pentanoyl)-6-azaspiro[2.5]octan-2-yl]methyl]-1,3-dihydropyrroIo[3,4-c]pyridine-2-carboxamide]	50.9	–
CC1(NC(=O)N2CCC3(CC2)CC3CNC(=O)N2Cc3ccncc3C2)COC1 (stereo not drawn) [Example 361, N-[[6-[(3-methyloxetan-3-yl)carbamoyl]-6-azaspiro[2.5]octan-2-yl]methyl]-1,3-dihydropyrrolo[3,4-c]pyridine-2-carboxamide]	56.1	–
CN1CCN(c2ccc(C(=O)N3CCC4(CC3)CC4CNC(=O)c3cc4cnccc4[nH]3)cc2)CC1 (stereo not drawn) [Example 363, N-[[6-[4-(4-methylpiperazin-1-yl)benzoyl]-6-azaspiro[2.5]octan-2-yl]methyl]-1H-pyrrolo[3,2-c]pyridine-2-carboxamide]	11.4	–
CC1(C)CC1C(=O)N1CCC2(CC1)CC2CNC(=O)c1cc2cnccc2[nH]1 (stereo not drawn) [Example 364, N-[[6-(2,2-dimethylcyclopropanecarbonyl)-6-azaspiro[2.5]octan-2-yl]methyl]-1H-pyrrolo[3,2-c]pyridine-2-carboxamide]	–	110
O=C(NCC1CC12CCN(C(=O)c1cc(C3CC3)n[nH]1)CC2)c1cc2cnccc2[nH]1 (stereo not drawn) [Example 368, N-[[6-(3-cyclopropyl-1H-pyrazole-5-carbonyl)-6-azaspiro[2.5]octan-2-yl]methyl]-1H-pyrrolo[3,2-c]pyridine-2-carboxamide]	991	–
Cn1cc(-c2ccno2)c(C(=O)N2CCC3(CC2)CC3CNC(=O)c2cc3cnccc3[nH]2)n1 (stereo not drawn) [Example 369, N-[[6-(4-isoxazol-5-yl-1-methyl-pyrazole-3-carbonyl)-6-azaspiro[2.5]octan-2-yl]methyl]-1H-pyrrolo[3,2-c]pyridine-2-carboxamide]	93.3	–
Cc1nc(C)c(C(=O)N2CCC3(CC2)CC3CNC(=O)c2cc3cnccc3[nH]2)o1 (stereo not drawn) [Example 370, N-[[6-(2,4-dimethyloxazole-5-carbonyl)-6-azaspiro[2.5]octan-2-yl]methyl]-1H-pyrrolo[3,2-c]pyridine 2-carboxamide]	115	–
CC1(C)CC1C(=O)N1CCC2(CC1)CC2CNC(=O)c1cc2ccncc2o1 (stereo not drawn) [Example 371, N-[[6-(2,2-dimethylcyclopropanecarbonyl)-6-azaspiro[2.5]octan-2-yl]methyl]furo[2,3-c]pyridine-2-carboxamide]	30.2	–

Now from value to compound:

IC50 (Homo sapiens, A2780, 72 h) [nM]	IC50 [nM]	Structure (SMILES)
1.9	–	CN1CCN(c2ccc(C(=O)N3CCC4(CC3)CC4CNC(=O)c3cc4ccncc4o3)cc2)CC1 (stereo not drawn) [Example 339, N-[[6-[4-(4-Methylpiperazin-1-yl)benzoyl]-6-azaspiro[2.5]octan-2-yl]methyl]furo[2,3-c]pyridine-2-carboxamide]
6.01	–	CN1CCN(Cc2ccc(C(=O)N3CCC4(CC3)CC4CNC(=O)N3Cc4ccncc4C3)cc2)CC1 (stereo not drawn) [Example 346, N-[[6-[4-[(4-methylpiperazin-1-yl)methyl]benzoyl]-6-azaspiro[2.5]octan-2-yl]methyl]-1,3-dihydropyrrolo[3,4-c]pyridine-2-carboxamide]
3.56	–	CC(C)(CO)OC(=O)N1CCC2(CC1)CC2CNC(=O)N1Cc2ccncc2C1 (stereo not drawn) [Example 351, (2-hydroxy-1,1-dimethyl-ethyl) 2-[(1,3-dihydropyrrolo[3,4-c]pyridine-2-carbonylamino)methyl]-6-azaspiro[2.5]octane-6-carboxylate]
7.55	–	O=C(NCC1CC12CCN(C(=O)c1cc(C3CC3)n[nH]1)CC2)N1Cc2ccncc2C1 (stereo not drawn) [Example 353, N-[[6-(3-cyclopropyl-1H-pyrazole-5-carbonyl)-6-azaspiro[2.5]octan-2-yl]methyl]-1,3-dihydropyrrolo[3,4-c]pyridine-2-carboxamide]
7.07	–	Cn1cc(-c2ccno2)c(C(=O)N2CCC3(CC2)CC3CNC(=O)N2Cc3ccncc3C2)n1 (stereo not drawn) [Example 354, N-[[6-(4-isoxazol-5-yl-1-methyl-pyrazole-3-carbonyl)-6-azaspiro[2.5]octan-2-yl]methyl]-1,3-dihydropyrrolo[3,4-c]pyridine-2-carboxamide]
7.62	–	CN1CCC(C)(CC(=O)N2CCC3(CC2)CC3CNC(=O)N2Cc3ccncc3C2)CC1 (stereo not drawn) [Example 356, N-[[6-[2-(1,4-dimethyl-4-piperidyl)acetyl]-6-azaspiro[2.5]octan-2-yl]methyl]-1,3-dihydropyrrolo[3,4-c]pyridine-2-carboxamide]
1.9	–	CN1CCN(c2ccc(C(=O)N3CCC4(CC3)CC4CNC(=O)N3Cc4ccncc4C3)cc2)CC1 (stereo not drawn) [Example 362, N-[[6-[4-(4-methylpiperazin-1-yl)benzoyl]-6-azaspiro[2.5]octan-2-yl]methyl]-1,3-dihydropyrrolo[3,4-c]pyridine-2-carboxamide]
